Like-named read-outs stand apart in the source and are kept apart here.
Test system: TNFα secretion
Experiment: TNFα secretion assay (ELISA), phorbol 12-myristate 13-acetate/ionomycin stimulated white blood cells
Type: cell-based
Settings: Homo sapiens, PBMC, read-out: % Inhibition TNFα PBMC PI
Protocol: The compound dilution matrix was assayed for the suppression of phorbol 12-myristate 13 acetate/ionomycin stimulated IL-1 and TNFα secretion as well as the suppression of lipopolysaccharide-stimulated TNFα secretion from human white blood cells using the ELISA method, as described below.
A stock solution containing prednisolone (0.36 mg/ml) was prepared in DMSO. A stock solution containing ibudilast (1.84 mg/ml) was prepared in DMSO. Master plates were prepared for dilutions of the stock solutions above.
The final single agent plates were generated by transferring 1 μL of stock solution from the specific master plate to separate dilution plates containing 99 μL of media (RPMI; Gibco BRL, #11875-085), 10% fetal bovine serum (Gibco BRL, #25140-097), 2% penicillin/streptomycin (Gibco BRL, #15140-122)) using the Packard Mini-Trak liquid handler. The dilution plates were then mixed and a 10 μL aliquot transferred from each dilution plate to the final assay plate (polystyrene 384-well plate (NalgeNunc)), which had been pre-filled with 30 μL/well RPMI media containing 33 ng/mL phorbol 12-myristate 13-acetate (Sigma, P-1585) and 2.475 ng/mL ionomycin (Sigma, I-0634) or alternatively for the LPS stimulated assay RPMI media containing 2 μg/ml lipopolysaccharide (Sigma, L-4130).
The effects of test compound combinations on TNFα secretion were assayed in white blood cells from human buffy coat stimulated with phorbol 12-myistate 13-acetate, or lipopolysaccharide as follows. Human white blood cells from buffy coat were diluted 1:50 in media (RPMI; Gibco BRL, #11875-085), 10% fetal bovine serum (Gibco BRL, #25140-097), 2% penicillin/streptomycin (Gibco BRL, #15140-122)) and 50 μL of the diluted white blood cells were placed in each well of the final assay plate created in the above section. After 16-18 hours of incubation at 37° C. with 5% CO2 in a humidified incubator, the plate was centrifuged and the supernatant transferred to a white opaque polystyrene 384 well plate (NalgeNunc, Maxisorb) coated with an anti-TNFα antibody (PharMingen, #551220). After a two-hour incubation, the plate was washed (Tecan Powerwasher 384) with PBS containing 0.1% Tween 20 and incubated for one additional hour with biotin labeled anti-TNFα antibody (PharMingen, #554511) and HRP coupled to streptavidin (PharMingen, #13047E). The plate was then washed again with 0.1% Tween 20/PBS. An HRP-luminescent substrate was added to each well, and the light intensity of each well was measured using a plate luminometer.
The percent inhibition (% I) for each well was calculated using the following formula: % I=[(avg. untreated wells−treated well)/(avg. untreated wells)]×100
The average untreated well value (avg. untreated wells) is the arithmetic mean of 30 wells from the same assay plate treated with vehicle alone.
TNFα secretion was measured by ELISA as described above after stimulation with phorbol 12-myristate 13-acetate and ionomycin. The effects of varying concentrations of ibudilast, prednisolone and a combination of ibudilast and prednisolone were compared to control wells.

SMILES	inhibition at 0.062 µM (ibudilast 0.062 μM alone) [%]	inhibition at 0.12 µM (ibudilast 0.12 μM alone) [%]	inhibition at 0.25 µM (ibudilast 0.25 μM alone) [%]	inhibition at 0.5 µM (ibudilast 0.5 μM alone) [%]	inhibition at 1 µM (ibudilast 1 μM alone) [%]	inhibition at 2 µM (ibudilast 2 μM alone) [%]	inhibition at 4 µM (ibudilast 4 μM alone) [%]	inhibition at 8 µM (ibudilast 8 μM alone) [%]	inhibition at 0.0078 µM (prednisolone 0.0078 μM alone) [%]	inhibition at 0.016 µM (prednisolone 0.016 μM alone) [%]	inhibition at 0.031 µM (prednisolone 0.031 μM alone) [%]	inhibition at 0.062 µM (prednisolone 0.062 μM alone) [%]	inhibition at 0.12 µM (prednisolone 0.12 μM alone) [%]	inhibition at 0.25 µM (prednisolone 0.25 μM alone) [%]	inhibition at 0.5 µM (prednisolone 0.5 μM alone) [%]	inhibition at 1 µM (prednisolone 1 μM alone) [%]
CC(C)C(=O)c1c(C(C)C)nn2ccccc12 [Ibudilast, ibudilast]	2.8	2.5	6.5	18	28	31	33	40								
C[C@]12C=CC(=O)C=C1CC[C@@H]1[C@@H]2[C@@H](O)C[C@@]2(C)[C@H]1CC[C@]2(O)C(=O)CO [Prednisolone, prednisolone]									12	17	22	22	29	32	33	36
